In patent US9700058B2, “Dispersion and detachment of cell aggregates” (priority 2011, dated 2017):
Positions of bridges follow the written chain, without caps; N, C: chain ends. No end group written: not given here.

Columns and labels:
Format in all cases: cell-based
[1] = test system: Candida albicans (ATCC14053); test: Biofilm prevention, crystal violet, 96-well plate; settings: added simultaneously, 24 h, 37° C.
Protocol: (§1) The peptides depicted in Table 1 (each with a cysteine attached to the N- and C-terminus of the peptides) were synthesized using solid-phase methods and were purified to 90% (Peptron, Inc.; Taejeon, South Korea). The peptides were dissolved in 20 μl dimethyl sulfoxide and diluted in double distilled water to a concentration of 10 mg/ml. Additional dilutions were performed in phosphate buffered saline (PBS).
(§2) The ability of these peptides to prevent microbial adhesion to a surface or detach microbial adhesion from a surface were measured against the following microbial strains: Pseudomonas aeruginosa (ATCC27853), Staphylococcus aureus (ATCC25923), Candida albicans (ATCC14053) and Acinetobacter baumannii (clinical isolate). […]
(§3) Biofilms of the foregoing microorganisms were grown in a 96-well found-bottom polystyrene plate. Specifically, 180 μl of overnight cultures were added to the wells with 20 μl of each peptide diluted in PBS, either simultaneously to measure prevention or after a period of time to measure detachment from 4 hours up to 24 hours post incubation. After 24 hours of incubation at 37° C., each well was washed with water and stained with 250 μl of crystal violet solution. The crystal violet solution was then removed by thoroughly washing the wells with water. To quantify the number of bacteria cells attached to the wells, the crystal violet was solubilized in 250 μl of 1% sodium dodecyl sulfate and the absorbance was measured at 595 nm.
(§4) The ability of these peptides to (1) prevent microbial adhesion to a surface and to (2) detach microbes already adhered to a surface were measured against the following microbial strains: Pseudomonas aeruginosa (ATCC27853), Staphylococcus aureus (ATCC25923), Candida albicans (ATCC14053) and/or Escherichia coli. The resulting percentage of prevention or detachment, relative to control wells in which the microbes was allowed to culture in the absence of peptides, are indicated in FIGS. 13 to 16.

[2] = test system: Pseudomonas aeruginosa (ATCC27853); test: Biofilm prevention, crystal violet, 96-well plate; settings: added simultaneously, 24 h, 37° C.
Protocol: as §1, §2, §3, §4

[3] = test system: Candida albicans (ATCC14053); test: Biofilm detachment, crystal violet, 96-well plate; settings: peptide 100 ng/ml, added after adhesion
Protocol: as §1
(§5) The ability of these peptides to prevent microbial adhesion to a surface or detach microbial adhesion from a surface were measured against the following microbial strains: Pseudomonas aeruginosa (ATCC27853), Staphylococcus aureus (ATCC25923), Candida albicans (ATCC14053) and Acinetobacter baumannii (clinical isolate). Specifically, peptides diluted to concentrations of 100 ng/ml were incubated with the foregoing microbes for 24 hours.
as §3, §4

[4] = test system: Pseudomonas aeruginosa (ATCC27853); test: Biofilm detachment, crystal violet, 96-well plate; settings: peptide 100 ng/ml, added after adhesion
Protocol: as §1, §5, §3, §4

[5] = test system: Staphylococcus aureus (ATCC25923); test: Biofilm detachment, crystal violet, 96-well plate; settings: peptide 100 ng/ml, added after adhesion
Protocol: as §1, §5, §3, §4

[6] = test system: Staphylococcus aureus (ATCC25923); test: Biofilm prevention, crystal violet, 96-well plate; settings: peptide 100 ng/ml, added simultaneously, 24 h, 37° C.
Protocol: as §1, §5, §3, §4

[7] = test system: Acinetobacter baumannii (clinical isolate); test: Biofilm prevention, crystal violet, 96-well plate; settings: added simultaneously, 24 h, 37° C.
Protocol: as §1, §2, §3

[8] = test system: Acinetobacter baumannii (clinical isolate); test: Biofilm detachment, crystal violet, 96-well plate; settings: peptide 100 ng/ml, added after adhesion
Protocol: as §1, §5, §3

[9] = test system: Pseudomonas aeruginosa (ATCC 27853); test: Detachment of pre-formed biofilm from a well (Examples 1-7); settings: different concentrations
Protocol: A biofilm was created by incubating Pseudomonas aeruginosa (ATCC 27853) overnight in wells at 37° C., allowing the microorganism to attach to the well surface. Eqt2Z-cyc peptide [Custom Peptide Synthesis; Peptron, Korea] at different concentrations was subsequently added to the wells and allowed to incubate overnight. The P.a. control was Pseudomonas aeruginosa alone.
A biofilm was created by culturing Pseudomonas aeruginosa (ATCC 27853) for 2 hours in a well at 37° C. Eqt2Z-cyc peptide at different concentrations was subsequently added to the well and allowed to incubate overnight. The Abac10-cyc peptide served as a negative control. The P.a. control was Pseudomonas aeruginosa alone.
A biofilm was created by culturing Pseudomonas aeruginosa (ATCC 27853) for 2 hours in a well at 37° C. Eqt2Z-cyc peptide at different concentrations was subsequently added to the well and allowed to incubate for 24 hours. The Abac10-cyc peptide served as a negative control. The P.a. control was Pseudomonas aeruginosa alone. […] Staining was performed with crystal violet at OD 595 nm.
A biofilm was created by culturing Pseudomonas aeruginosa (ATCC 27853) for 2 hours in a well at 37° C. grZ14s-nvCyc peptide [Custom Peptide Synthesis; Peptron, Korea] at different concentrations was subsequently added to the well and allowed to incubate for 24 hours. The Abac10-cyc peptide served as a negative control. The P.a. control was Pseudomonas aeruginosa alone. […] Staining was performed with crystal violet at OD 595 nm.
A biofilm was created by culturing Pseudomonas aeruginosa (ATCC 27853) for 24 hours in a well at 37° C. Eqt2Z-cyc peptide at different concentrations was subsequently added to the well and allowed to incubate for 24 hours. The Abac10-cyc peptide served as a negative control. The P.a. control was Pseudomonas aeruginosa alone. […] Staining was performed with crystal violet at OD 595 nm.
A biofilm was created by culturing Pseudomonas aeruginosa (ATCC 27853) for 24 hours in a well at 37° C. grZ14s-nvCyc peptide at different concentrations was subsequently added to the well and allowed to incubate for 24 hours. The Abac10-cyc peptide served as a negative control. The P.a. control was Pseudomonas aeruginosa alone. […] Staining was performed with crystal violet at OD 595 nm.
A biofilm was created by culturing Pseudomonas aeruginosa (ATCC 27853) for 24 hours in a well at 37° C. PhyscoZ-Cyc peptide [Custom Peptide Synthesis; Peptron, Korea] at different concentrations was subsequently added to the well and allowed to incubate for 24 hours. The P.a. control was Pseudomonas aeruginosa alone. […] Staining was performed with crystal violet at OD 595 nm.

[10] = 24-hour biofilm, 24-hour peptide incubation, crystal violet OD 595 nm

Question: “CKVNSFDYDWYNVC (disulfide 1-14 (inferred)) [MeleagZ-cyc]” was tested. Which “Biofilm prevention (%)” value ([1]; peptide 100 ng/ml) did it give?
Answer: 30%

Question: And the “Biofilm prevention (%)” value ([2]; peptide 100 ng/ml)?
Answer: 82%

Question: And the “Detachment (%) (100 ng/ml)” value [3]?
Answer: 62%

Question: What about the “Detachment (%) (100 ng/ml)” value [4] of the same sequence?
Answer: 65%

Question: And the “Detachment (%) (100 ng/ml)” value [5]?
Answer: 80%

Question: And the “Biofilm prevention (%)” value [6]?
Answer: 73%

Question: What about the “Biofilm prevention (%)” value ([7]; peptide 100 ng/ml) of the same sequence?
Answer: 95%

Question: Which results are given for “CNVHSFDYDWYNVC (disulfide 1-14 (inferred)) [CanisZ-cyc]”?
Answer: Biofilm prevention (%) ([1]; peptide 100 ng/ml): 80%; Biofilm prevention (%) ([2]; peptide 100 ng/ml): 95%; Detachment (%) (100 ng/ml) [3]: 45%; Detachment (%) (100 ng/ml) [4]: 72%; Biofilm prevention (%) [6]: 75%; Biofilm prevention (%) ([7]; peptide 10 ng/ml): 60%; Detachment (%) (100 ng/ml) [8]: 73%

Question: How did the “Biofilm prevention (%)” value ([1]; peptide 100 ng/ml) turn out when “CRINSFDYDWYNVC (disulfide 1-14 (inferred)) [TetraoZ-cyc]” was run?
Answer: 25%

Question: And the “Biofilm prevention (%)” value ([2]; peptide 100 ng/ml)?
Answer: 45%

Question: What about the “Detachment (%) (100 ng/ml)” value [3] of the same sequence?
Answer: 55%

Question: What about the “Detachment (%) (100 ng/ml)” value [5] of the same sequence?
Answer: 43%

Question: And the “Biofilm prevention (%)” value [6]?
Answer: 52%

Question: What about the “Biofilm prevention (%)” value ([7]; peptide 10 ng/ml) of the same sequence?
Answer: 70%

Question: What does the source list for “CRVESFDFDWYNIC (disulfide 1-14 (inferred)) [SalmoZ-cyc]”?
Answer: Biofilm prevention (%) ([1]; peptide 100 ng/ml): 55%; Biofilm prevention (%) ([2]; peptide 10 ng/ml): 90%; Detachment (%) (100 ng/ml) [3]: 73%; Detachment (%) (100 ng/ml) [4]: 80%; Detachment (%) (100 ng/ml) [5]: 75%; Biofilm prevention (%) [6]: 80%; Biofilm prevention (%) ([7]; peptide 100 ng/ml): 95%

Question: Which results are given for “CRVESFNYDWYNVC (disulfide 1-14 (inferred)) [NilotiZ-cyc]”?
Answer: Biofilm prevention (%) ([1]; peptide 100 ng/ml): 30%; Biofilm prevention (%) ([2]; peptide 100 ng/ml): 90%; Detachment (%) (100 ng/ml) [3]: 65%; Detachment (%) (100 ng/ml) [4]: 40%; Detachment (%) (100 ng/ml) [5]: 65%; Biofilm prevention (%) [6]: 63%; Biofilm prevention (%) ([7]; peptide 100 ng/ml): 87%

Question: With “CSAPYNFNFYSNWC (disulfide 1-14 (inferred)) [EchoZ-cyc]” as the sequence, how does the “Biofilm prevention (%)” value ([1]; peptide 10 ng/ml) read?
Answer: 80%

Question: And the “Biofilm prevention (%)” value ([2]; peptide 100 ng/ml)?
Answer: 90%

Question: What about the “Detachment (%) (100 ng/ml)” value [4] of the same sequence?
Answer: 65%

Question: What about the “Detachment (%) (100 ng/ml)” value [5] of the same sequence?
Answer: 35%

Question: What about the “Biofilm prevention (%)” value [6] of the same sequence?
Answer: 85%

Question: What about the “Biofilm prevention (%)” value ([7]; peptide 100 ng/ml) of the same sequence?
Answer: 80%

Question: And the “Detachment (%) (100 ng/ml)” value [8]?
Answer: 60%

Question: “CSELSSFNFDWYNVC (disulfide 1-15 (inferred)) [CionaZ-S-cyc]” was tested. Which “Biofilm prevention (%)” value ([1]; peptide 100 ng/ml) did it give?
Answer: 68%

Question: What about the “Biofilm prevention (%)” value ([2]; peptide 100 ng/ml) of the same sequence?
Answer: 75%

Question: And the “Detachment (%) (100 ng/ml)” value [3]?
Answer: 42%

Question: What about the “Detachment (%) (100 ng/ml)” value [4] of the same sequence?
Answer: 78%

Question: And the “Biofilm prevention (%)” value [6]?
Answer: 90%

Question: And the “Biofilm prevention (%)” value ([7]; peptide 100 ng/ml)?
Answer: 52%

Question: What about the “Detachment (%) (100 ng/ml)” value [8] of the same sequence?
Answer: 80%

Question: Which results are given for “CSRYSSFDYDWYNVC (disulfide 1-15 (inferred)) [XenoZ-S-cyc]”?
Answer: Biofilm prevention (%) ([1]; peptide 100 ng/ml): 75%; Biofilm prevention (%) ([2]; peptide 10 ng/ml): 57%; Detachment (%) (100 ng/ml) [3]: 50%; Detachment (%) (100 ng/ml) [4]: 30%; Biofilm prevention (%) [6]: 65%; Biofilm prevention (%) ([7]; peptide 100 ng/ml): 95%; Detachment (%) (100 ng/ml) [8]: 49%

Question: How did the “Biofilm prevention (%)” value ([1]; peptide 10 ng/ml) turn out when “CSVPFDYNLYSNWC [PhyscoZ-cyc] (also: cyclised)” was run?
Answer: 62%

Question: And the “Biofilm prevention (%)” value ([2]; peptide 100 ng/ml)?
Answer: 95%

Question: And the “Detachment (%) (100 ng/ml)” value [4]?
Answer: 75%

Question: And the “Detachment (%) (100 ng/ml)” value [5]?
Answer: 70%

Question: And the “Biofilm prevention (%)” value [6]?
Answer: 65%

Question: And the “Detachment (%) (100 ng/ml)” value [8]?
Answer: 50%

Question: What about the microorganism detachment [9, 10] of the same sequence?
Answer: far greater microorganism detachment than in the P.a. control

Question: Which results are given for “CSVPFDYNLYSNWC [SelagZ-cyc] (disulfide 1-14 (inferred))”?
Answer: Biofilm prevention (%) ([1]; peptide 10 ng/ml): 80%; Biofilm prevention (%) ([2]; peptide 100 ng/ml): 88%; Detachment (%) (100 ng/ml) [4]: 67%; Detachment (%) (100 ng/ml) [5]: 35%; Biofilm prevention (%) [6]: 88%; Biofilm prevention (%) ([7]; peptide 100 ng/ml): 80%; Detachment (%) (100 ng/ml) [8]: 50%

Question: “CSVPYDYNWYSNWC (disulfide 1-14 (inferred)) [Eqt2Z-cyc]” was tested. Which microorganism detachment ([9]; 2-hour biofilm, 24-hour peptide incubation, crystal violet OD 595 nm) did it give?
Answer: far greater microorganism detachment than in the P.a. control or negative control

Question: And the microorganism detachment ([9]; 2-hour biofilm, overnight peptide incubation)?
Answer: far greater microorganism detachment than in the P.a. control or negative control

Question: What about the microorganism detachment [9, 10] of the same sequence?
Answer: far greater microorganism detachment than in the P.a. control or negative control

Question: What about the microorganism detachment ([9]; overnight biofilm, overnight peptide incubation) of the same sequence?
Answer: far greater microorganism detachment than in the P.a. control

Question: Which “Biofilm prevention (%)” value ([1]; peptide 100 ng/ml) does the source give for “CTVHSFDYDWYNVC (disulfide 1-14 (inferred)) [CapraZ-cyc]” here?
Answer: 25%

Question: And the “Biofilm prevention (%)” value ([2]; peptide 100 ng/ml)?
Answer: 68%

Question: And the “Detachment (%) (100 ng/ml)” value [3]?
Answer: 60%

Question: And the “Detachment (%) (100 ng/ml)” value [4]?
Answer: 65%

Question: What about the “Detachment (%) (100 ng/ml)” value [5] of the same sequence?
Answer: 55%

Question: And the “Biofilm prevention (%)” value [6]?
Answer: 42%

Question: And the “Biofilm prevention (%)” value ([7]; peptide 100 ng/ml)?
Answer: 90%

Question: Which results are given for “CTVNSFDYDWYNVC (disulfide 1-14 (inferred)) [AnoliZ-cyc]”?
Answer: Biofilm prevention (%) ([1]; peptide 100 ng/ml): 55%; Biofilm prevention (%) ([2]; peptide 100 ng/ml): 95%; Detachment (%) (100 ng/ml) [3]: 72%; Detachment (%) (100 ng/ml) [4]: 90%; Detachment (%) (100 ng/ml) [5]: 72%; Biofilm prevention (%) [6]: 75%; Biofilm prevention (%) ([7]; peptide 10 ng/ml): 92%
